{"source": "patent US20120034192A1", "about": "“COMPOSITIONS AND METHODS FOR ENHANCING CELL REPROGRAMMING” (priority 2008, published 2012)", "key": {"[1]": {"tested_on": "2nd KSO cells (secondary mouse embryonic fibroblasts)", "assay": "iPS cell colony formation from 2nd KSO secondary MEFs after siRNA transfection", "type": "cell-based", "details": "siRNA 50 nM", "text": "Applicants next sought to determine the effect of inhibiting H3K9 methyltransferases on generation of iPS cells. For some experiments, Applicants used “secondary” mouse embryonic fibroblasts (MEFs) that express murine reprogramming factors Klf4, Sox2, and Oct4 under the control of a doxycycline (“dox”)-inducible promoter. These cells, which are referred to as “2nd KSO” cells for short, reprogram to form iPS cells at a low frequency upon treatment with doxycycline, as described in the literature. The cells contained an Oct4-neo transgene, thereby allowing use of G418 to select for cells that were reprogrammed to pluripotency (as evidenced by expression from the Oct4 promoter).\nApplicants plated 2nd KSO cells into individual wells of 6-well dishes (100,000 cells per well) in mES cell medium (3 ml) on day 0. On day 1, cells in individual wells were transfected with siRNA (Ambion) designed to inhibit expression of a gene encoding one of the following H3K9 methyltransferases: Ehmt1, Ehmt2, Suv39h1, Suv39h2, and Riz1. Two different siRNAs targeted to each of these genes were used (each well received a single siRNA sequence). […] Accordingly, results obtained using this siRNA must be disregarded. […]\nCells were treated with dox to induce expression of the reprogramming factors. […] Colonies were counted on day 20."}, "G9a HMTase": {"target": "T1, G9a HMTase (Homo sapiens, UniProt Q96KQ7)", "T1 sequence (Q96KQ7 1-1210)": "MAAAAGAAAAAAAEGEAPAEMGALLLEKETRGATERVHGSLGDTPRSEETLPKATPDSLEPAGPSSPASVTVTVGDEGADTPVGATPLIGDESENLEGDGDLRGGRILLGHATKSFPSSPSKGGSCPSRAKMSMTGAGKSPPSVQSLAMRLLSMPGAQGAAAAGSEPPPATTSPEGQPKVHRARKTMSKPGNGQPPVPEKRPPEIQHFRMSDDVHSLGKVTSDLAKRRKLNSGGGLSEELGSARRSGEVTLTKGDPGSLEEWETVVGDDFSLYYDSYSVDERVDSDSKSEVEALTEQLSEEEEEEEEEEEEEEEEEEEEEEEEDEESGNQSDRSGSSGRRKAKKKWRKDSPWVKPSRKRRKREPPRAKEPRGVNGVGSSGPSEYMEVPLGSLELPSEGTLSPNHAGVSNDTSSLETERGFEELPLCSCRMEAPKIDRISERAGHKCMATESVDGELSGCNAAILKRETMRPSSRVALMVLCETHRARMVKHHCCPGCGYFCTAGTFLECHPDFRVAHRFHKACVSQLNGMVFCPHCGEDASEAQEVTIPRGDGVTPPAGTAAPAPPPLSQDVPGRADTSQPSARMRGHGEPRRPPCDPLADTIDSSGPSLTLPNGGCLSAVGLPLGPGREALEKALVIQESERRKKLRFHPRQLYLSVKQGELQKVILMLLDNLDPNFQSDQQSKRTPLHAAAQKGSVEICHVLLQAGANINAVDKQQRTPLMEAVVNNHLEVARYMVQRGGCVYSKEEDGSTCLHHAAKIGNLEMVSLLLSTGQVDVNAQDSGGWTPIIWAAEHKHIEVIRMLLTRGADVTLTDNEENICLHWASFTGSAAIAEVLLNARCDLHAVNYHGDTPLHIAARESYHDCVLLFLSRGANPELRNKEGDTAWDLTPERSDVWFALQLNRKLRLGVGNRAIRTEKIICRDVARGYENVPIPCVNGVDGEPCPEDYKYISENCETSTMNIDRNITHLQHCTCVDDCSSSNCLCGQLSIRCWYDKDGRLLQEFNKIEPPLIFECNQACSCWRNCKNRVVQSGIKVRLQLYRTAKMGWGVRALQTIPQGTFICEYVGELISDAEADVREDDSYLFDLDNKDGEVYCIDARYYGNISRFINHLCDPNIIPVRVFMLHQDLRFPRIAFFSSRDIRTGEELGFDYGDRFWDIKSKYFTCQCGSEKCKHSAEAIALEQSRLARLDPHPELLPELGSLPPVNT", "details": "cited from earlier work"}, "histone deacetylase": {"tested_on": "histone deacetylase", "details": "cited from earlier work"}}}
{"compound": "siRNA #2 against SetDB1: siRNA (Ambion) vs ESET/SetDB1; sense GGACGAUGCAGGAGAUAGAtt, antisense UCUAUCUCCUGCAUCGUCCga (sense GGACGAUGCAGGAGAUAGATT; antisense UCUAUCUCCUGCAUCGUCCGA; chemistry not given here)", "values": [{"measurement": "number of iPS cell colonies / reprogramming efficiency", "setting": "[1]; dox, G418 from day 14, colonies counted on day 20", "value": "most striking increase in reprogramming efficiency"}]}
{"compound": "s82302: siRNA (Ambion) vs suv39h2; sense GUGUCGAUGUGGACCUGAAtt, antisense UUCAGGUCCACAUCGACACct (sense GUGUCGAUGUGGACCUGAATT; antisense UUCAGGUCCACAUCGACACCT; chemistry not given here)", "values": [{"measurement": "cell growth", "setting": "[1]; 2nd KSO cells", "value": "inhibited cell growth"}]}
{"compound": "COc1cc2nc(N3CCCN(C)CC3)nc(NC3CCN(Cc4ccccc4)CC3)c2cc1OC", "note": "[BIX-01294]", "values": [{"measurement": "competition with cofactor S-adenosyl-methionine", "setting": "G9a HMTase", "value": "does not compete with the cofactor S-adenosyl-methionine"}, {"measurement": "selective inhibition of HMTase and generation of H3K9me2", "setting": "G9a HMTase; in vitro", "value": "selectively impairs the G9a HMTase and the generation of H3K9me2 in vitro"}]}
{"compound": "CC(/C=C/C(=O)NO)=C\\[C@@H](C)C(=O)c1ccc(N(C)C)cc1", "note": "[Trichostatin A, [R-(E,E)]-7-[4-(Dimethylamino)phenyl]-N-hydroxy-4,6-dimethyl-7-oxo-2,4-heptadienamide]", "values": [{"measurement": "concentration inhibiting histone deacetylase", "setting": "histone deacetylase", "value": "nanomolar concentrations"}]}
